System: catalepsigenic effect
Assay: Investigation into the catalepsigenic effect in rats
Type: in vivo, Wistar rats
Conditions: 2 mg.kg^-1, same study conditions (IP, rats, 30-minute interval)
Procedure: The catalepsigenic effect is investigated in rats via the intraperitoneal route. This test predicts the existence of side effects of extrapyramidal type. 6 groups of Wistar rats received an injection of the compounds of the invention and were then tested for their catalepsigenic activity after a 30-minute interval. Haloperidol is used as reference.

In the case of `O=C(CCCN1CCC(O)(c2ccc(Cl)cc2)CC1)c1ccc(F)cc1` [haloperidol], the catalepsigenic effect was 95%.

Source: patent publication US5512569A, “Aminoalkyl benzothiazolinones” (Adir et Compagnie, priority 1994, dated 1996)
